Laboratory results reported in patent publication US6872818B2, “Ammonium sulfate for neutralization of inhibitory effects” (QIAGEN GmbH, priority 2001, dated 2005).

Legend:
cDNA synthesis = assay: Reverse transcription / PCR in presence of SYBRGREEN dye; type: biochemical; conditions: final concentration of 100×
Description: Reverse transcription reactions containing 0×, 0.001×, 0.01×, 0.1×, 1×, 10× and 100× SYBRGREEN® dye were performed. In order to quantify the generated cDNA after RT-reaction, 2 μl of the RT reaction was transferred to a 20 μl PCR mixture. PCR products were analyzed by gel-electrophoresis.

RT-PCR reaction = conditions: final concentration of 1 mM
Description: In order to quantify the generated cDNA after RT reactions, 2 μl of each RT reaction mixture was transferred to a 20 μl PCR mixture.

Row | Structure (SMILES) | cDNA synthesis (cDNA synthesis) | reduction in signals produced from an RT-PCR reaction (RT-PCR reaction)
1 | CCCN(CCCN(C)C)c1cc(/C=C2/Sc3ccccc3N2C)c2ccccc2[n+]1-c1ccccc1 [SYBRGREEN® dye] | total loss of cDNA synthesis | –
2 | NCCCNCCCCNCCCN [spermine] | – | up to 4 fold
